Experimental data taken from US20250381110A1, “SKIN CARE COMPOSITION AND METHOD OF USING THE SAME” (THE PROCTER & GAMBLE COMPANY, priority 2024, published 2025).
Where a name gives a salt, the structure may show the parent alone. Read-outs that look alike come from different tables or passages of the source.

System: p62-dependent mitophagy
Assay: Luciferase-p62 assay (Fluc-p62 clearance) in mouse embryonic fibroblasts
Assay type: cell-based
Procedure, shortened: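 MEFs with doxycycline-inducible Fluc-p62; after induction, doxycycline removed and cells treated 48 h with compounds at 10 μM. Fluc-p62 clearance, taken as mitophagy, read by ONE-Glo+Tox luciferase with viability. Vehicle (DMSO) as negative control; activity also expressed relative to rapamycin.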

[1] = Luciferase-p62 assay, mouse embryonic fibroblasts (MEFs), compounds at 10 μM
[2] = percentage of Luciferase-p62 clearance relative to baseline (mean luminescence in the absence of doxycycline induction), MEFs, 10 μM
[3] = percentage of activity relative to rapamycin tested in the same experiment at the same concentration, MEFs, 10 μM

Row | Compound | Mean Luminescence [1] | % Activity over baseline [2] [%] | % Activity relative to Rapamycin [3] [%] | Mean Luminescence | % Activity over baseline (10 µM) [%] | % Activity relative to Rapamycin (10 µM) [%]
1 | C[C@H](CC[C@@]1(O)O[C@H]2C[C@H]3[C@@H]4CC=C5C[C@@H](O[C@@H]6O[C@H](CO)[C@@H](O[C@@H]7O[C@@H](C)[C@H](O)[C@@H](O)[C@H]7O)[C@H](O)[C@H]6O[C@@H]6O[C@@H](C)[C@H](O)[C@@H](O)[C@H]6O)CC[C@]5(C)[C@H]4CC[C@]3(C)[C@H]2[C@@H]1C)CO[C@@H]1O[C@H](CO)[C@@H](O)[C@H](O)[C@H]1O [Protodioscin] | 713.58 | 55.90 | 100.72 |  |  | 
2 | Nc1ncnc2c1ncn2[C@@H]1O[C@H](COP(=O)(O)OP(=O)(O)OP(=O)(O)O)[C@@H](O)[C@H]1O [ATP] | 875.39 | 45.90 | 82.70 |  |  | 
3 | CC1=C(/C=C/C(C)=C/C=C/C(C)=C/C(=O)O)C(C)(C)CCC1 [Tretinoin (Aberela)] | 773.39 | 52.20 | 94.06 |  |  | 
4 | O=C(O)Cc1cccc(O)c1 [3-Hydroxyphenylacetic acid] | 888.33 | 45.10 | 81.26 |  |  | 
5 | CO/N=C(\C(=O)N[C@@H]1C(=O)N2C(C(=O)O)=C(Cn3ccc(=N)n3CCO)CS[C@H]12)c1csc(N)n1.O=S(=O)(O)O [Cefoselis Sulfate] | 937.12 | 42.09 | 75.83 |  |  | 
6 | COc1cc(C)c(/C=C/C(C)=C/C=C/C(C)=C/C(=O)O)c(C)c1C [Acitretin] | 883.02 | 45.43 | 81.85 |  |  | 
7 | CSCCC(NC(C)=O)C(=O)O (racemic) [N-Acetyl-DL-methionine] | 973.29 | 39.85 | 71.80 |  |  | 
8 | CC1(C)CC[C@]2(C(=O)O[C@@H]3O[C@H](CO[C@@H]4O[C@H](CO)[C@@H](O)[C@H](O)[C@H]4O)[C@@H](O)[C@H](O)[C@H]3O)CC[C@]3(C)C(=CC[C@@H]4[C@@]5(C)CC[C@H](O[C@@H]6OC[C@H](O)[C@H](O)[C@H]6O)[C@@](C)(CO)[C@@H]5CC[C@]43C)[C@@H]2C1 [Asperosaponin VI] | 955.83 | 40.93 | 73.74 |  |  | 
9 | CC(=O)C(C)=NO [2,3-Butanedione-2-monoxime] | 762.32 | 52.89 | 95.29 |  |  | 
10 | O=c1ccn([C@@H]2O[C@H](CO)[C@@H](O)[C@H]2O)c(=O)[nH]1 [Uridine] | 955.62 | 40.94 | 73.77 |  |  | 
11 | CC(C)=CCC[C@@H](C)[C@H]1CC[C@@]2(C)C3=C(CC[C@]12C)[C@@]1(C)CC[C@H](O)C(C)(C)[C@@H]1CC3 [Lanosterol] | 957.65 | 40.82 | 73.54 |  |  | 
12 | CC(=O)CCC(=O)O [Levulinic acid] | 771.58 | 52.32 | 94.26 |  |  | 
13 | COc1cc2ncnc(Nc3ccc(F)c(Cl)c3)c2cc1OCCCN1CCOCC1 [Gefitinib (ZD1839)] | 960.31 | 40.65 | 73.25 |  |  | 
14 | CC(=O)c1cc(O)ccc1O [2′,5′-Dihydroxyacetophenone] | 709.63 | 56.14 | 101.16 |  |  | 
15 | CC1=C2C(=O)O[C@@H](c3ccoc3)[C@]2(C)CCC1 [Fraxinellone] | 972.50 | 39.90 | 71.89 |  |  | 
16 | CCC(C)n1ncn(-c2ccc(N3CCN(c4ccc(OCC5COC(Cn6cncn6)(c6ccc(Cl)cc6Cl)O5)cc4)CC3)cc2)c1=O (stereo not drawn) [Itraconazole] | 450.47 | 72.16 | 130.02 |  |  | 

Row | Compound | Mean Luminescence [1] | % Activity over baseline [2] [%] | % Activity relative to Rapamycin [3] [%] | Mean Luminescence | % Activity over baseline (10 µM) [%] | % Activity relative to Rapamycin (10 µM) [%]
17 | O=C(O)CC(=O)O [Malonic acid] | 865.42 | 46.52 | 83.81 |  |  | 
18 | CC(C)c1cc2c(c(O)c1O)[C@@]1(C(=O)O)CCCC(C)(C)[C@@H]1CC2 [Carnosic acid] | 661.96 | 59.09 | 106.47 |  |  | 
19 | N[C@@H]1CCCCN(c2c(F)cc3c(=O)c(C(=O)O)cn(C4CC4)c3c2Cl)C1 [Besifloxacin HCl] | 777.82 | 51.93 | 93.56 |  |  | 
20 | O=C1C[C@@H](c2ccc(O)c(O)c2)Oc2cc(O)cc(O)c21 [Eriodictyol] | 852.50 | 47.31 | 85.25 |  |  | 
21 | CCCNC(C)C(=O)Nc1ccccc1C (stereo not drawn) [Prilocaine] | 905.23 | 44.06 | 79.38 |  |  | 
22 | Cl.Cl.NCCCCN [1,4-Diaminobutane dihydrochloride] |  |  |  | 902.42 | 44.23 | 79.69
23 | CC(=O)OCC1=C(C(=O)O)N2C(=O)[C@@H](NC(=O)Cc3cccs3)[C@H]2SC1 [Cephalothin] | 727.65 | 55.03 | 99.15 |  |  | 
24 | Nc1ccn([C@@H]2O[C@H](CO)[C@@H](O)[C@H]2O)c(=O)n1 [Cytidine] | 841.40 | 48.00 | 86.49 |  |  | 
25 | CC(C)C[C@H]1C(=O)N2CCC[C@H]2[C@]2(O)O[C@](NC(=O)[C@@H]3C=C4c5cccc6[nH]c(Br)c(c56)C[C@H]4N(C)C3)(C(C)C)C(=O)N12 [Bromocriptine mesylate] | 685.00 | 57.67 | 103.90 |  |  | 
26 | C=C(C)[C@H]1CC=C(C)C(=O)C1 [(S)-(+)-Carvone] | 802.50 | 50.40 | 90.82 |  |  | 
27 | CC[C@H]1CN2CC[C@H]1C[C@@H]2[C@@H](O)c1ccnc2ccc(OC)cc12 [Hydroquinidine] | 958.47 | 40.77 | 73.45 |  |  | 
28 | C[C@]12CC[C@@H]3c4ccc(O)cc4CC[C@H]3[C@@H]1CC[C@@H]2O [Estradiol] | 768.64 | 52.50 | 94.59 |  |  | 
29 | COc1cc(CC(=O)O)ccc1O [Homovanillic acid] | 908.95 | 43.83 | 78.96 |  |  | 
30 | CN1CCN(c2cc3c(cc2F)c(=O)c(C(=O)O)cn3-c2ccc(F)cc2)CC1 [Difloxacin HCl] | 980.30 | 39.42 | 71.02 |  |  | 
31 | C#C[C@]1(O)CC[C@H]2[C@@H]3CCC4=CC(=O)CC[C@]4(C)[C@H]3CC[C@@]21C [Ethisterone] | 996.32 | 38.43 | 69.24 |  |  | 
32 | Clc1ccc(COC(Cn2ccnc2)c2ccc(Cl)cc2Cl)cc1 (stereo not drawn) [Econazole nitrate] | 359.76 | 77.77 | 140.12 |  |  | 
